Results taken from PubChem BioAssay (NCI).
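Test compounds were applied to cells in 96-well plates for 48 hours at 5 doses. The concentration for 50% growth inhibition is given as GI50. At the TGI there is no net growth.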

How the values were obtained:
Assay in all cases: growth of human tumour cells (NCI), 48 h
EKVX NSCLC = test system: EKVX NSCLC
T-47D breast = test system: T-47D breast
OVCAR-8 ovarian = test system: OVCAR-8 ovarian
HL-60(TB) leukemia = test system: HL-60(TB) leukemia
HCT-15 colon = test system: HCT-15 colon
KM12 colon = test system: KM12 colon
SF-295 CNS = test system: SF-295 CNS
CAKI-1 renal = test system: CAKI-1 renal
MDA-MB-435 = test system: MDA-MB-435
NCI-H522 lung = test system: NCI-H522 lung
K-562 leukemia = test system: K-562 leukemia
SF-268 CNS = test system: SF-268 CNS
HS 578T breast = test system: HS 578T breast
SN12C renal = test system: SN12C renal
OVCAR-4 ovarian = test system: OVCAR-4 ovarian
HOP-62 NSCLC = test system: HOP-62 NSCLC
NCI-H23 lung = test system: NCI-H23 lung
SK-OV-3 ovarian = test system: SK-OV-3 ovarian
MALME-3M melanoma = test system: MALME-3M melanoma
SNB-75 CNS = test system: SNB-75 CNS
IGROV1 ovarian = test system: IGROV1 ovarian
RXF 393 renal = test system: RXF 393 renal
SW-620 colon = test system: SW-620 colon
COLO 205 colon = test system: COLO 205 colon
MDA-MB-231 breast = test system: MDA-MB-231 breast
U251 CNS = test system: U251 CNS
SK-MEL-5 melanoma = test system: SK-MEL-5 melanoma
A549 NSCLC = test system: A549 NSCLC
HCC-2998 colon = test system: HCC-2998 colon
MCF7 breast = test system: MCF7 breast
BT-549 breast = test system: BT-549 breast
786-0 renal = test system: 786-0 renal
SK-MEL-28 melanoma = test system: SK-MEL-28 melanoma
SNB-19 CNS = test system: SNB-19 CNS
HOP-92 NSCLC = test system: HOP-92 NSCLC
MOLT-4 leukemia = test system: MOLT-4 leukemia
HCT-116 colon = test system: HCT-116 colon
UACC-257 melanoma = test system: UACC-257 melanoma
SR leukemia = test system: SR leukemia
HT29 colon = test system: HT29 colon
PC-3 prostate = test system: PC-3 prostate
RPMI-8226 leukemia = test system: RPMI-8226 leukemia
DU-145 prostate = test system: DU-145 prostate
CCRF-CEM leukemia = test system: CCRF-CEM leukemia
A498 renal = test system: A498 renal
SK-MEL-2 melanoma = test system: SK-MEL-2 melanoma
M14 melanoma = test system: M14 melanoma
SF-539 CNS = test system: SF-539 CNS
NCI/ADR-RES ovarian = test system: NCI/ADR-RES ovarian
ACHN renal = test system: ACHN renal
NCI-H226 lung = test system: NCI-H226 lung
UO-31 renal = test system: UO-31 renal
TK-10 renal = test system: TK-10 renal
UACC-62 melanoma = test system: UACC-62 melanoma
LOX IMVI melanoma = test system: LOX IMVI melanoma
OVCAR-5 ovarian = test system: OVCAR-5 ovarian
NCI-H460 lung = test system: NCI-H460 lung

## Oc1ccc(CSc2nnc(-c3ccc(Cl)cc3)o2)c2cccnc12
EKVX NSCLC
  GI50: 2.76 µM
  TGI: > 100 µM
T-47D breast
  GI50: 2.54 µM
  TGI: > 100 µM
OVCAR-8 ovarian
  GI50: 2.32 µM
  TGI: > 100 µM
HL-60(TB) leukemia
  GI50: 1.91 µM
  TGI: 9.57 µM
HCT-15 colon
  GI50: 0.698 µM
  TGI: > 100 µM
KM12 colon
  GI50: 1.96 µM
  TGI: > 100 µM
SF-295 CNS
  GI50: 2.34 µM
  TGI: > 100 µM
CAKI-1 renal
  GI50: 2.91 µM
  TGI: > 100 µM
MDA-MB-435
  GI50: 2.96 µM
  TGI: > 100 µM
NCI-H522 lung
  GI50: 2.92 µM
  TGI: > 100 µM
K-562 leukemia
  GI50: 2.17 µM
  TGI: > 100 µM
SF-268 CNS
  GI50: 1.56 µM
  TGI: > 100 µM
HS 578T breast
  GI50: 1.62 µM
  TGI: 64.7 µM
SN12C renal
  GI50: 2.54 µM
  TGI: > 100 µM
OVCAR-4 ovarian
  GI50: 3.07 µM
  TGI: > 100 µM
HOP-62 NSCLC
  GI50: 2.92 µM
  TGI: > 100 µM
NCI-H23 lung
  GI50: 2.42 µM
  TGI: > 100 µM
SK-OV-3 ovarian
  GI50: 3.15 µM
  TGI: > 100 µM
MALME-3M melanoma
  GI50: 2.87 µM
  TGI: > 100 µM
SNB-75 CNS
  GI50: 1.52 µM
  TGI: 7.81 µM
IGROV1 ovarian
  GI50: 2.8 µM
  TGI: > 100 µM
RXF 393 renal
  GI50: 2.37 µM
  TGI: > 100 µM
SW-620 colon
  GI50: 2.91 µM
  TGI: > 100 µM
COLO 205 colon
  GI50: > 100 µM
  TGI: > 100 µM
MDA-MB-231 breast
  GI50: 3.18 µM
  TGI: > 100 µM
U251 CNS
  GI50: 1.11 µM
  TGI: > 100 µM
SK-MEL-5 melanoma
  GI50: 1.89 µM
  TGI: 5.16 µM
A549 NSCLC
  GI50: 2.78 µM
  TGI: > 100 µM
HCC-2998 colon
  GI50: 2.29 µM
  TGI: > 100 µM
MCF7 breast
  GI50: 2.66 µM
  TGI: > 100 µM
BT-549 breast
  GI50: 2.47 µM
  TGI: > 100 µM
786-0 renal
  GI50: 3.22 µM
  TGI: > 100 µM
SK-MEL-28 melanoma
  GI50: 2.38 µM
  TGI: > 100 µM
SNB-19 CNS
  GI50: 1.52 µM
  TGI: > 100 µM
HOP-92 NSCLC
  GI50: 1.14 µM
  TGI: 6.72 µM
MOLT-4 leukemia
  GI50: 2.37 µM
  TGI: > 100 µM
HCT-116 colon
  GI50: 1.76 µM
  TGI: > 100 µM
UACC-257 melanoma
  GI50: 3.19 µM
  TGI: > 100 µM
SR leukemia
  GI50: 0.777 µM
  TGI: > 100 µM
HT29 colon
  GI50: > 100 µM
  TGI: > 100 µM
PC-3 prostate
  GI50: 1.49 µM
  TGI: > 100 µM
RPMI-8226 leukemia
  GI50: 1.22 µM
  TGI: > 100 µM
DU-145 prostate
  GI50: 3.67 µM
  TGI: > 100 µM
CCRF-CEM leukemia
  GI50: 1 µM
  TGI: > 100 µM

## Nc1nc(N)c2c(n1)NC(c1ccc(Cl)cc1)CC(c1ccc(Nc3nc(NCCO)nc(Nc4ccc(Cl)cc4)n3)cc1)=N2 (stereo not given)
A498 renal
  GI50: 5.9 µM
  TGI: 19.8 µM
EKVX NSCLC
  GI50: 2.01 µM
  TGI: 6.88 µM
T-47D breast
  GI50: 1.71 µM
  TGI: 6.51 µM
OVCAR-8 ovarian
  GI50: 1.57 µM
  TGI: 3.27 µM
HL-60(TB) leukemia
  GI50: 1.15 µM
  TGI: 3.94 µM
HCT-15 colon
  GI50: 1.29 µM
  TGI: 2.8 µM
KM12 colon
  GI50: 3.18 µM
  TGI: 10.3 µM
SF-295 CNS
  GI50: 1.73 µM
  TGI: 3.67 µM
CAKI-1 renal
  GI50: 5.36 µM
  TGI: 28.2 µM
MDA-MB-435
  GI50: 1.63 µM
  TGI: 3.18 µM
NCI-H522 lung
  GI50: 1.56 µM
  TGI: 3.16 µM
K-562 leukemia
  GI50: 0.713 µM
  TGI: 3.2 µM
SF-268 CNS
  GI50: 4.14 µM
  TGI: 26.1 µM
HS 578T breast
  GI50: 2.22 µM
  TGI: 5.01 µM
OVCAR-4 ovarian
  GI50: 1.96 µM
  TGI: 5.04 µM
SK-MEL-2 melanoma
  GI50: 1.45 µM
  TGI: 2.83 µM
M14 melanoma
  GI50: 1.9 µM
  TGI: 4.39 µM
HOP-62 NSCLC
  GI50: 2.83 µM
  TGI: 10.9 µM
SF-539 CNS
  GI50: 1.68 µM
  TGI: 3.32 µM
SK-OV-3 ovarian
  GI50: 14.8 µM
  TGI: 29.3 µM
SNB-75 CNS
  GI50: 1.59 µM
  TGI: 3.97 µM
IGROV1 ovarian
  GI50: 1.71 µM
  TGI: 3.58 µM
RXF 393 renal
  GI50: 1.54 µM
  TGI: 2.97 µM
SW-620 colon
  GI50: 1.62 µM
  TGI: 3.3 µM
COLO 205 colon
  GI50: 1.51 µM
  TGI: 3.59 µM
NCI/ADR-RES ovarian
  GI50: 4.24 µM
  TGI: > 100 µM
MDA-MB-231 breast
  GI50: 1.75 µM
  TGI: 3.92 µM
U251 CNS
  GI50: 1.47 µM
  TGI: 2.92 µM
ACHN renal
  GI50: 4.69 µM
  TGI: > 100 µM
SK-MEL-5 melanoma
  GI50: 1.48 µM
  TGI: 2.8 µM
NCI-H226 lung
  GI50: 6.47 µM
  TGI: 29.8 µM
UO-31 renal
  GI50: 3.1 µM
  TGI: 15.3 µM
A549 NSCLC
  GI50: 4.12 µM
  TGI: > 100 µM
HCC-2998 colon
  GI50: 1.44 µM
  TGI: 2.78 µM
TK-10 renal
  GI50: 10.6 µM
  TGI: 25.3 µM
MCF7 breast
  GI50: 1.2 µM
  TGI: 2.57 µM
BT-549 breast
  GI50: 2.25 µM
  TGI: 5.89 µM
786-0 renal
  GI50: 1.55 µM
  TGI: 3.04 µM
UACC-62 melanoma
  GI50: 2.03 µM
  TGI: 4.28 µM
SK-MEL-28 melanoma
  GI50: 1.73 µM
  TGI: 3.11 µM
SNB-19 CNS
  GI50: 1.99 µM
  TGI: 5.81 µM
HOP-92 NSCLC
  GI50: 1.29 µM
  TGI: 3.12 µM
MOLT-4 leukemia
  GI50: 0.792 µM
  TGI: 3.92 µM
HCT-116 colon
  GI50: 1.4 µM
  TGI: 2.69 µM
LOX IMVI melanoma
  GI50: 1.45 µM
  TGI: 2.86 µM
UACC-257 melanoma
  GI50: 1.91 µM
  TGI: 3.74 µM
OVCAR-5 ovarian
  GI50: 4.48 µM
  TGI: 19.8 µM
HT29 colon
  GI50: 1.7 µM
  TGI: 3.68 µM
NCI-H460 lung
  GI50: 1.72 µM
  TGI: 3.32 µM
PC-3 prostate
  GI50: 1.93 µM
  TGI: 7.55 µM
DU-145 prostate
  GI50: 2.22 µM
  TGI: 5.81 µM
